# Measured values taken from PubChem BioAssay (NCI).
#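 Interpolation was linear, between the two tested concentrations surrounding the appropriate level; five concentrations were tested over 48 hours in 96-well plates. Here, GI50 denotes the concentration required for 50% inhibition of growth. TGI marks complete inhibition of growth.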
# Assays:
# Experiment in all cases: growth of human tumour cells (NCI), 48 h
# HCT-116 colon = system: HCT-116 colon
# HCT-15 colon = system: HCT-15 colon
# MOLT-4 leukemia = system: MOLT-4 leukemia
# SN12C renal = system: SN12C renal
# K-562 leukemia = system: K-562 leukemia
# MDA-MB-231 breast = system: MDA-MB-231 breast
# HCC-2998 colon = system: HCC-2998 colon
# SNB-19 CNS = system: SNB-19 CNS
# KM12 colon = system: KM12 colon
# MDA-MB-435 = system: MDA-MB-435
# NCI/ADR-RES ovarian = system: NCI/ADR-RES ovarian
# DU-145 prostate = system: DU-145 prostate
# MCF7 breast = system: MCF7 breast
# LOX IMVI melanoma = system: LOX IMVI melanoma
# A498 renal = system: A498 renal
# SK-MEL-2 melanoma = system: SK-MEL-2 melanoma
# U251 CNS = system: U251 CNS
# SF-268 CNS = system: SF-268 CNS
# HOP-62 NSCLC = system: HOP-62 NSCLC
# CCRF-CEM leukemia = system: CCRF-CEM leukemia
# TK-10 renal = system: TK-10 renal
# ACHN renal = system: ACHN renal
# SW-620 colon = system: SW-620 colon
# T-47D breast = system: T-47D breast
# SK-OV-3 ovarian = system: SK-OV-3 ovarian
# SF-295 CNS = system: SF-295 CNS
# SK-MEL-5 melanoma = system: SK-MEL-5 melanoma
# SK-MEL-28 melanoma = system: SK-MEL-28 melanoma
smiles,measurement,setting,value
Cc1c(-c2ccc(O)c(O)c2)oc(=O)c2c(O)cc(O)cc12,TGI,HCT-116 colon,> 100 µM
same,GI50,HCT-15 colon,9.66 µM
same,TGI,HCT-15 colon,> 100 µM
same,GI50,MOLT-4 leukemia,42.8 µM
same,TGI,MOLT-4 leukemia,> 100 µM
same,GI50,SN12C renal,14.5 µM
same,TGI,SN12C renal,59.1 µM
same,GI50,K-562 leukemia,19.5 µM
same,TGI,K-562 leukemia,> 100 µM
same,GI50,MDA-MB-231 breast,86.8 µM
same,TGI,MDA-MB-231 breast,> 100 µM
same,GI50,HCC-2998 colon,31.5 µM
same,TGI,HCC-2998 colon,88.6 µM
same,GI50,SNB-19 CNS,45.6 µM
same,TGI,SNB-19 CNS,> 100 µM
same,GI50,KM12 colon,12.2 µM
same,TGI,KM12 colon,54.7 µM
same,GI50,MDA-MB-435,2.17 µM
same,TGI,MDA-MB-435,6.14 µM
same,GI50,NCI/ADR-RES ovarian,14.1 µM
same,TGI,NCI/ADR-RES ovarian,> 100 µM
same,GI50,DU-145 prostate,28.8 µM
same,TGI,DU-145 prostate,> 100 µM
same,GI50,MCF7 breast,39.1 µM
same,TGI,MCF7 breast,> 100 µM
same,GI50,LOX IMVI melanoma,13.1 µM
same,TGI,LOX IMVI melanoma,> 100 µM
same,GI50,A498 renal,20.7 µM
same,TGI,A498 renal,56.8 µM
same,GI50,SK-MEL-2 melanoma,26 µM
same,TGI,SK-MEL-2 melanoma,> 100 µM
same,GI50,U251 CNS,9.67 µM
same,TGI,U251 CNS,> 100 µM
same,GI50,SF-268 CNS,11.1 µM
same,TGI,SF-268 CNS,> 100 µM
same,GI50,HOP-62 NSCLC,18.2 µM
same,TGI,HOP-62 NSCLC,61.5 µM
same,GI50,CCRF-CEM leukemia,2.83 µM
same,TGI,CCRF-CEM leukemia,> 100 µM
same,GI50,TK-10 renal,7.97 µM
same,TGI,TK-10 renal,36 µM
same,GI50,ACHN renal,21.3 µM
same,TGI,ACHN renal,> 100 µM
same,GI50,SW-620 colon,4.92 µM
same,TGI,SW-620 colon,> 100 µM
same,GI50,T-47D breast,88.7 µM
same,TGI,T-47D breast,> 100 µM
same,GI50,SK-OV-3 ovarian,62.7 µM
same,TGI,SK-OV-3 ovarian,> 100 µM
same,GI50,SF-295 CNS,7.52 µM
same,TGI,SF-295 CNS,28.9 µM
same,GI50,SK-MEL-5 melanoma,6.59 µM
same,TGI,SK-MEL-5 melanoma,30.8 µM
same,GI50,SK-MEL-28 melanoma,19.8 µM
same,TGI,SK-MEL-28 melanoma,> 100 µM
